How the values were obtained:
[1] = patients; eye drops; compared to synthetic GCs such as dexamethasone, prednisolone, fluorometholone; cited from earlier work
[2] = biological target: Glucocorticoid receptor (GR) (Homo sapiens (Human), UniProt P04150); assay: Glucocorticoid receptor transactivation, MMTV-bla HeLa CELLSENSOR reporter assay, agonist mode; type: cell-based; details: for % Activation at 100 nM: control compound dexamethasone; for EC50: 5 hours incubation, maximum concentration 100 nM
GAL4(DBD)-MR(LBD) = GAL4(DBD)-MR(LBD) (Homo sapiens (Human), UniProt P08235); assay: Mineralocorticoid receptor transactivation, UAS-bla HEK 293T CELLSENSOR reporter assay, agonist mode; type: cell-based; details: for % Activation at 100 nM: control compound aldosterone; for EC50: 16 hours incubation, maximum concentration 100 nM, read-out: EC50 (nM) MR (Table 4: mineralocorticoid receptor potency)
GAL4(DBD)-MR(LBD), sequence (P08235 726-964): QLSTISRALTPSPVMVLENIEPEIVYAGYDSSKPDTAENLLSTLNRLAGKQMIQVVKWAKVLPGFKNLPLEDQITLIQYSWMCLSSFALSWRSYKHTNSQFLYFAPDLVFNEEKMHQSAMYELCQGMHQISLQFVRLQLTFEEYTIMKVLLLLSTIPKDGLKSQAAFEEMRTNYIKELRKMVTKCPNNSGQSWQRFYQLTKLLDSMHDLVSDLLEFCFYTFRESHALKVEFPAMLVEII
Protocol: Mineralocorticoid receptor (MR) activation potency was assessed using a HEK 293T cell line containing the UAS-bla reporter (UAS-bla HEK 293T CELLSENSOR®). This cell line was stably cotransfected with an expression construct containing β-lactamase cDNA under control of the GAL4 Upstream Activator Sequence (UAS) and another expression construct encoding for the fusion protein GAL4(DBD)-MR(LBD). […] All assays were performed as 10-point dose responses using a half log-fold dilution series starting with a maximum compound concentration of 100 nM. The compounds were incubated for 16 hours. The activation of the fusion protein GAL4(DBD)-MR(LBD) leads to expression of the reporter β-lactamase which is detected by the conversion of a FRET substrate in a ratiometric assay format. This functional assay allows for measurement of receptor agonism by compounds and can be used to determine compound potency and selectivity. Assay reproducibility was determined by calculating Z′ values for untreated versus maximum stimulation. The Z′ value was greater than 0.6, indicating good reproducibility of the assay format.

Glucocorticoid receptor (GR), sequence (P04150 whole entry, the tested form may be a part): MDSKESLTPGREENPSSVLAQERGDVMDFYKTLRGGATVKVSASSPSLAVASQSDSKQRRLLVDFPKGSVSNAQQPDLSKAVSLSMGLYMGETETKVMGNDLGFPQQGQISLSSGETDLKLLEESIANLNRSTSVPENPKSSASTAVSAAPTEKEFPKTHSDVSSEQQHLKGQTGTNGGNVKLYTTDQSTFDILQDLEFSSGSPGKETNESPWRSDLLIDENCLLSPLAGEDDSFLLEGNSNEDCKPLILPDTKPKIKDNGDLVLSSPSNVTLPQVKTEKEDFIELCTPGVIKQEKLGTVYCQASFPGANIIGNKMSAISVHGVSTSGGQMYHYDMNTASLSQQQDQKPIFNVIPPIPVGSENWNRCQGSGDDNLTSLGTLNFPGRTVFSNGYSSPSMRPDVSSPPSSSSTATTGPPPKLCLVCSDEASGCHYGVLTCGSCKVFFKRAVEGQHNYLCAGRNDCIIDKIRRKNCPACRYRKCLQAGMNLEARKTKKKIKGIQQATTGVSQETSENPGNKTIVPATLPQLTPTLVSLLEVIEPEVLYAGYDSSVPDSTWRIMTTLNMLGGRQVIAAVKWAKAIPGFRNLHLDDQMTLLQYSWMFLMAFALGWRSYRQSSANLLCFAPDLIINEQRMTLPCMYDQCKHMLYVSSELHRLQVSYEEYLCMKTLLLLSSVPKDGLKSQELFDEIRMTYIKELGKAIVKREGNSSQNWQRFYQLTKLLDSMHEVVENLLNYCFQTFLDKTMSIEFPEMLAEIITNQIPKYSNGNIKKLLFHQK

| Compound | effect on intraocular pressure [1] | % Activation at 100 nM [2] [%] | EC50 [2] [nM] | % Activation at 100 nM (GAL4(DBD)-MR(LBD)) [%] | EC50 (GAL4(DBD)-MR(LBD)) [nM] |
| --- | --- | --- | --- | --- | --- |
| C[C@]12CCC(=O)C=C1CC[C@@H]1[C@@H]2[C@@H](O)C[C@@]2(C)[C@H]1CC[C@]2(O)C(=O)CO [cortisol] | minimal effect on intraocular pressure | – | – | – | – |
| C[C@]12CCC(=O)C=C1CC[C@@H]1[C@@H]2[C@@H](O)C[C@@]2(C)[C@H]1CC[C@]2(OC(=O)C1CCCC1)C(=O)CO [drawing 11] | – | 88 | 1.35 | – | – |
| C[C@]12CCC(=O)C=C1CC[C@@H]1[C@@H]2[C@@H](O)C[C@@]2(C)[C@H]1CC[C@]2(OC(=O)c1ccccc1)C(=O)CO [drawing 12] | – | 85 | 1.41 | – | – |
| CCCC(=O)O[C@]1(C(=O)CO)CC[C@H]2[C@@H]3CCC4=CC(=O)CC[C@]4(C)[C@H]3[C@@H](O)C[C@@]21C [drawing 13] | – | 86 | 1.97 | – | – |
| CCCCCC(=O)O[C@]1(C(=O)CO)CC[C@H]2[C@@H]3CCC4=CC(=O)CC[C@]4(C)[C@H]3[C@@H](O)C[C@@]21C [drawing 14] | – | 65 | 3.25 | – | – |
| CCCCCCC(=O)O[C@]1(C(=O)CO)CC[C@H]2[C@@H]3CCC4=CC(=O)CC[C@]4(C)[C@H]3[C@@H](O)C[C@@]21C [drawing 15] | – | 47 | 6.04 | – | – |
| CCC(=O)O[C@]1(C(=O)CO)CC[C@H]2[C@@H]3CCC4=CC(=O)CC[C@]4(C)[C@H]3[C@@H](O)C[C@@]21C [drawing 16] | – | 85 | 6.31 | – | – |
| CC(C)C(=O)O[C@]1(C(=O)CO)CC[C@H]2[C@@H]3CCC4=CC(=O)CC[C@]4(C)[C@H]3[C@@H](O)C[C@@]21C [drawing 17] | – | 84 | 7.07 | – | – |
| C[C@]12CCC(=O)C=C1CC[C@@H]1[C@@H]2[C@@H](O)C[C@@]2(C)[C@H]1CC[C@]2(O)C(=O)CO [drawing 18] | – | 43 | – | – | – |
| CCCCCCC(=O)O[C@]1(C(=O)CO)CC[C@H]2[C@@H]3CCC4=CC(=O)CC[C@]4(C)[C@H]3[C@@H](O)C[C@@]21C [drawing 19] | – | 15 | > 100 | – | – |
| C[C@]12CCC(=O)C=C1CC[C@@H]1[C@@H]2[C@@H](O)C[C@@]2(C)[C@H]1CC[C@]2(OC(=O)Cc1ccccc1)C(=O)CO [drawing 20] | – | 5 | > 100 | – | – |
| C[C@]12CCC(=O)C=C1CC[C@@H]1[C@@H]2[C@@H](O)C[C@@]2(C)[C@H]1CC[C@]2(OC(=O)Cc1ccccc1)C(=O)CO [drawing 22] | – | – | – | 81 | 2.85 |
| C[C@]12CCC(=O)C=C1CC[C@@H]1[C@@H]2[C@@H](O)C[C@@]2(C)[C@H]1CC[C@]2(O)C(=O)CO [drawing 23] | – | – | – | 75 | 2.9 |
| CCCC(=O)O[C@]1(C(=O)CO)CC[C@H]2[C@@H]3CCC4=CC(=O)CC[C@]4(C)[C@H]3[C@@H](O)C[C@@]21C [drawing 24] | – | – | – | 77 | 2.94 |
| CCC(=O)O[C@]1(C(=O)CO)CC[C@H]2[C@@H]3CCC4=CC(=O)CC[C@]4(C)[C@H]3[C@@H](O)C[C@@]21C [drawing 25] | – | – | – | 76 | 3.17 |
| CCCCCCC(=O)O[C@]1(C(=O)CO)CC[C@H]2[C@@H]3CCC4=CC(=O)CC[C@]4(C)[C@H]3[C@@H](O)C[C@@]21C [drawing 26] | – | – | – | 72 | 5.27 |
| CCCCCC(=O)O[C@]1(C(=O)CO)CC[C@H]2[C@@H]3CCC4=CC(=O)CC[C@]4(C)[C@H]3[C@@H](O)C[C@@]21C [drawing 27] | – | – | – | 64 | 5.68 |
| C[C@]12CCC(=O)C=C1CC[C@@H]1[C@@H]2[C@@H](O)C[C@@]2(C)[C@H]1CC[C@]2(OC(=O)c1ccccc1)C(=O)CO [drawing 28] | – | – | – | 62 | 7.46 |
| CCCCCCC(=O)O[C@]1(C(=O)CO)CC[C@H]2[C@@H]3CCC4=CC(=O)CC[C@]4(C)[C@H]3[C@@H](O)C[C@@]21C [drawing 29] | – | – | – | 56 | 9.29 |
| CC(C)C(=O)O[C@]1(C(=O)CO)CC[C@H]2[C@@H]3CCC4=CC(=O)CC[C@]4(C)[C@H]3[C@@H](O)C[C@@]21C [drawing 30] | – | – | – | 62 | 15.6 |
| C[C@]12CCC(=O)C=C1CC[C@@H]1[C@@H]2[C@@H](O)C[C@@]2(C)[C@H]1CC[C@]2(OC(=O)C1CCCC1)C(=O)CO [drawing 31] | – | – | – | 27 | > 100 |
